Consider seven molecules from patent US20230139171A1 (SITA Information Networking Computing UK Limited, priority 2019, published 2023).

The term IC50 denotes the midpoint of a concentration-inhibition curve.

What all share (format): cell-based
For test [1], the target named is T1, human TLR7 (Homo sapiens, UniProt Q9NYK1).
T1 construct: host or cells: HEK-Blue cells
T1 sequence (Q9NYK1 27-1049): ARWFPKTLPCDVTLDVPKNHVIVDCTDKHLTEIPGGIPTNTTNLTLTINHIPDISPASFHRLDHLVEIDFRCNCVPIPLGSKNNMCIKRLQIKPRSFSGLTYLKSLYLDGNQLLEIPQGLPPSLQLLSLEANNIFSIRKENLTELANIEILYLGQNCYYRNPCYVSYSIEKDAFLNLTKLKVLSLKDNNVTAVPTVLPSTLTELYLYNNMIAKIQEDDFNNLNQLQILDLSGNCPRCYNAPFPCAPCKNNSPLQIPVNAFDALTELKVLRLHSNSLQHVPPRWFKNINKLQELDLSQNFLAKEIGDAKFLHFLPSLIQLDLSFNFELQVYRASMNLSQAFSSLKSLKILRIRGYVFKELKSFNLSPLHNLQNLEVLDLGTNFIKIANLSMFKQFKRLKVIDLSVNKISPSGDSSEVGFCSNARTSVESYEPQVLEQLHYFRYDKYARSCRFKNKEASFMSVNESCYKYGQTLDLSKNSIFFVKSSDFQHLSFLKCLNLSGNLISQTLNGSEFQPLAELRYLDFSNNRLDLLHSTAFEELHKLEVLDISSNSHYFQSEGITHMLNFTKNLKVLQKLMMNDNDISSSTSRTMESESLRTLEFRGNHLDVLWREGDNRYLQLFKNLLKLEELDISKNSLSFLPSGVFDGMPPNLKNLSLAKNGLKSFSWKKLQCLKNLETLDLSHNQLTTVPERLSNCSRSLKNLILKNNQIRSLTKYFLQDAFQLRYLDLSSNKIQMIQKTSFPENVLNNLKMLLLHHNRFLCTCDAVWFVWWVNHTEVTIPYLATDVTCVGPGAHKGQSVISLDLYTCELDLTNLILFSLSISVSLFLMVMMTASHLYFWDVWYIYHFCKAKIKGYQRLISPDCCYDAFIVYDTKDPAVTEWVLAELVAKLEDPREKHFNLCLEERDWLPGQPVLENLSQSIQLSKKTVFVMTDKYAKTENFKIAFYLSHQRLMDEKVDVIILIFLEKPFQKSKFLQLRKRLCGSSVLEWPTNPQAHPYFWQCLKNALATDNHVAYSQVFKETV
The test can be described thus: TLR7 inhibition reporter assay (HEK-Blue cells, SEAP reporter, gardiquimod stimulation). The conditions noted are these: HEK-Blue cells overexpressing human TLR7, SEAP reporter, gardiquimod 7.5 μM; read-out: TLR7 IC50. An outline of the steps: (§1)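 Dose–response from 0.05 nM to 50 μM was run in HEK-Blue human TLR7, TLR8 and TLR9 reporter cells. After 30 min at room temperature with compound, ligand was added (TLR7 gardiquimod 7.5 μM; TLR8 R848 15.9 μM; TLR9 ODN2006 5 nM) and SEAP measured next day, at 22 h.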

Test [2] has as its target T2, human TLR8 (Homo sapiens, UniProt Q9NR97).
T2 construct: host or cells: HEK-Blue cells
T2 sequence (Q9NR97 27-1041): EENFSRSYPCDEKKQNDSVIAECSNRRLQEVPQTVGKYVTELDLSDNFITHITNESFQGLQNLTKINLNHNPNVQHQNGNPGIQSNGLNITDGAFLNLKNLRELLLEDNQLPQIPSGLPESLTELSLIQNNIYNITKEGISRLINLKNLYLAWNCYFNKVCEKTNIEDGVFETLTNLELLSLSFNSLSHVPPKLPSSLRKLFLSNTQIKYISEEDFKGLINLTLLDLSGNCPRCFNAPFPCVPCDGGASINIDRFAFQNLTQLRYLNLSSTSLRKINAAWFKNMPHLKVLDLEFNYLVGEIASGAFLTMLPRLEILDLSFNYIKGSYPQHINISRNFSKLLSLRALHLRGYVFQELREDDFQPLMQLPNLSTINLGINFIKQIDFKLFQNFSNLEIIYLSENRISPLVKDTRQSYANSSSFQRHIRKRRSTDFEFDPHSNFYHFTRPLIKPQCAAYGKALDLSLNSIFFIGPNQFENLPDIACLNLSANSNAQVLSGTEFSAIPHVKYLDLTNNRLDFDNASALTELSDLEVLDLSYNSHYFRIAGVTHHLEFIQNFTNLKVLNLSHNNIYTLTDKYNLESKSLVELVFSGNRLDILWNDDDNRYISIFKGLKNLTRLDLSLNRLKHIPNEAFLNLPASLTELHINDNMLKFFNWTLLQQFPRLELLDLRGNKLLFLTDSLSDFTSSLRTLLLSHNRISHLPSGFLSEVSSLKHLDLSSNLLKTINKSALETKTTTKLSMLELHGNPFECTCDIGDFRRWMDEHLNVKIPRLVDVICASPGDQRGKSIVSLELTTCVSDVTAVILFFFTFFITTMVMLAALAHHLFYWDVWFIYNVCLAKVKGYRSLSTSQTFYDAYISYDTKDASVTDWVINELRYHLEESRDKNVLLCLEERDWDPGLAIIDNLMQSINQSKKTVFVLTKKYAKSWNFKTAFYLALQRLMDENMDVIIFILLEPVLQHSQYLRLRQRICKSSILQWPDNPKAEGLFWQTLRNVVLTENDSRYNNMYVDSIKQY
Description: TLR8 inhibition reporter assay (HEK-Blue cells, SEAP reporter, R848 stimulation). The conditions noted are these: HEK-Blue cells overexpressing human TLR8, SEAP reporter, R848 15.9 μM; read-out: TLR8 IC50. An outline of the steps: as §1
A general note: Reporter assays use an easily measured gene product as a stand-in for the process of interest.

Test [3] has as its target T3, human TLR9 (Homo sapiens, UniProt Q9NR96).
T3 construct: host or cells: HEK-Blue cells
T3 sequence (Q9NR96 26-1032): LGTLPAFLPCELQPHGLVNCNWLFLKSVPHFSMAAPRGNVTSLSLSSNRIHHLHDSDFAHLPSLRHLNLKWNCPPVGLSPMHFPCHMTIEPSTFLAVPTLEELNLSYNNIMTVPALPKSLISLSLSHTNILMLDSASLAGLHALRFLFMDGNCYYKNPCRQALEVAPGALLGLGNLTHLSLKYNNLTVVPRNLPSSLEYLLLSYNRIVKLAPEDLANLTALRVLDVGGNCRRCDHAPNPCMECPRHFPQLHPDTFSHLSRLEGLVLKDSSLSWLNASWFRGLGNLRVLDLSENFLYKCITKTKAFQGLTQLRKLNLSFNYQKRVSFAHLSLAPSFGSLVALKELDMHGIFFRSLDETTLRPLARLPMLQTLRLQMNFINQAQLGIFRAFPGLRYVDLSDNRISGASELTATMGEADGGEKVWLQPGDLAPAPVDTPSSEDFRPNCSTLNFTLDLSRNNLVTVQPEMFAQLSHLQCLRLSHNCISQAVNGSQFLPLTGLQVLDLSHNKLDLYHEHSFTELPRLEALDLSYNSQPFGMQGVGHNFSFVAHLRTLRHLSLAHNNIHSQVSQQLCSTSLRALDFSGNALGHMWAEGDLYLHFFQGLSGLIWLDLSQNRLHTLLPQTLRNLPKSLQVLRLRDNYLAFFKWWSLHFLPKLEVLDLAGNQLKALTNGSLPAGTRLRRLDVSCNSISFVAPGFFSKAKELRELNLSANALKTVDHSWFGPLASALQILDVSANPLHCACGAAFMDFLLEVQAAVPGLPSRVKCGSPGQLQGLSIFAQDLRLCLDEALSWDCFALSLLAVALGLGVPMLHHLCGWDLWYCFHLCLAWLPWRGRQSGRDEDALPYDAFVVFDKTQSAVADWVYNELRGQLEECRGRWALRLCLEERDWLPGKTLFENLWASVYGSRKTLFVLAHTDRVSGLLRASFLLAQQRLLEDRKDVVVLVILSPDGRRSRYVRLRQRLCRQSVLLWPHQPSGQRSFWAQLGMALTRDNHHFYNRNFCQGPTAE
Description: TLR9 inhibition reporter assay (HEK-Blue cells, SEAP reporter, ODN2006 stimulation). Conditions: HEK-Blue cells overexpressing human TLR9, SEAP reporter, ODN2006 5 nM. The method, boiled down: as §1

The structures appear in SMILES notation.

For `Cc1c(-c2[nH]c3sc(CNC4CCN(C(C)C)CC4)nc3c2C(C)C)cn2ncnc2c1C` [Example 401, N-((5-(7,8-dimethyl-[1,2,4]triazolo[1,5-a]pyridin-6-yl)-6-isopropyl-4H-pyrrolo[3,2-d]thiazol-2-yl)methyl)-1-isopropylpiperidin-4-amine], the results for the half-maximal inhibitory concentration (IC50) in test [1], in test [2] and in test [3] were 36.9 nM, 35.7 nM and 13500 nM, respectively.
As for `Cc1c(-c2[nH]c3sc(CNCC4(S(C)(=O)=O)CC4)nc3c2C(C)C)cn2ncnc2c1C` [Example 405, 1-(5-(7,8-dimethyl-[1,2,4]triazolo[1,5-a]pyridin-6-yl)-6-isopropyl-4H-pyrrolo[3,2-d]thiazol-2-yl)-N-((1-(methylsulfonyl)cyclopropyl)methyl)methanamine], the 50% inhibitory concentration (IC50) in test [1] is 77.5 nM; in test [2], 215 nM; in test [3], 37700 nM.
For `Cc1c(-c2[nH]c3sc(CN4CC5(CNC5)C4)nc3c2C(C)C)cn2ncnc2c1C` [Example 409, 2-((2,6-diazaspiro[3.3]heptan-2-yl)methyl)-5-(7,8-dimethyl-[1,2,4]triazolo[1,5-a]pyridin-6-yl)-6-isopropyl-4H-pyrrolo[3,2-d]thiazole], the results for the half-maximal inhibitory concentration (IC50) in test [1], in test [2] and in test [3] were 48.2 nM, 345 nM and 9800 nM, respectively.
Taken in the same sequence, the figures for `COc1cc(-c2[nH]c3nc(C4CCNCC4)sc3c2C(C)C)cn2ncnc12` [Example 410, 6-isopropyl-5-(8-methoxy-[1,2, 4]triazolo[1,5-a]pyridin-6-yl)-2-(piperidin-4-yl)-4H-pyrrolo[2,3-d]thiazole] were 130 nM, 560 nM and 6800 nM.
Taken in the same sequence, the figures for `Cc1cc(-c2[nH]c3nc(C4CCNCC4)sc3c2C(C)C)cn2ncnc12` [Example 411, 6-isopropyl-5-(8-methyl-[1,2,4]triazolo[1,5-a]pyridin-6-yl)-2-(piperidin-4-yl)-4H-pyrrolo[2,3-d]thiazole] were 1.8 nM, 200 nM and 3100 nM.
As to `Cc1cc(-c2[nH]c3nc(C4CCN(CC5(C)COC5)CC4)sc3c2C(C)C)cn2ncnc12` [Example 412, 6-isopropyl-5-(8-methyl-[1,2,4]triazolo[1,5-a]pyridin-6-yl)-2-(1-((3-methyloxetan-3-yl)methyl)piperidin-4-yl)-4H-pyrrolo[2,3-d]thiazole], the 50% inhibitory concentration (IC50) in test [1] stood at 50 nM; in test [2], 520 nM; in test [3] it was 5000 nM.
For the molecule `COc1cc(-c2[nH]c3cc(C4CCNCC4)sc3c2C(C)C)cn2ncnc12` [Example 413, 6-isopropyl-5-(8-methoxy-[1,2,4]triazolo[1,5-a]pyridin-6-yl)-2-(piperidin-4-yl)-4H-thieno[3,2-b]pyrrole], the IC50 amounted to 5.3 nM in test [1], 9.3 nM in test [2] and 3100 nM in test [3].
